Measurements taken from ChEMBL document CHEMBL1201862, “PubChem BioAssay data set” (2004).
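Method: 48-hour compound exposure of cells in 96-well plates, five concentrations, linear interpolation of endpoints. GI50 is the concentration that inhibits growth by half.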 Active and inactive are the calls of the source. No stated cut-off is given here; in the data, active = GI50 up to about 1.1 µM and inactive = higher.

Legend:
Experiment in all cases: NCI anticancer screen, dose series, 48 h
786-0 = system: 786-0
ACHN = system: ACHN
CAKI-1 = system: CAKI-1
HCT-15 = system: HCT-15
HOP-62 = system: HOP-62
KM12 = system: KM12
LOX IMVI = system: LOX IMVI
M14 = system: M14
MDA-N = system: MDA-N
Malme-3M = system: Malme-3M
NCI-H522 = system: NCI-H522
OVCAR-5 = system: OVCAR-5
RPMI-8226 = system: RPMI-8226
SF-268 = system: SF-268
SF-295 = system: SF-295
SN12C = system: SN12C
SNB-19 = system: SNB-19
UACC-257 = system: UACC-257
UO-31 = system: UO-31

Compound	GI50 (786-0)	GI50 (ACHN)	GI50 (CAKI-1)	GI50 (HCT-15) [µM]	GI50 (HOP-62)	GI50 (KM12)	GI50 (LOX IMVI)	GI50 (M14)	GI50 (MDA-N)	GI50 (Malme-3M)	GI50 (NCI-H522)	GI50 (OVCAR-5)	GI50 (RPMI-8226)	GI50 (SF-268)	GI50 (SF-295)	GI50 (SN12C)	GI50 (SNB-19)	GI50 (UACC-257)	GI50 (UO-31)
NCCNC(=S)S	33.8 µM (inactive)	> 100 µM (inactive)	> 100 µM (inactive)	58.2	> 100 µM (inactive)	> 100 µM (inactive)	51.8 µM (inactive)	> 100 µM (inactive)	> 100 µM (inactive)	11.9 µM (inactive)	3.48 µM (inactive)	> 100 µM (inactive)	24.9 µM (inactive)	4.9 µM (inactive)	> 100 µM (inactive)	68.9 µM (inactive)	> 100 µM (inactive)	> 100 µM (inactive)	> 100 µM (inactive)
C=C1CC(Cn2ccc(=O)[nH]c2=O)(c2ccc(Cl)cc2)OC1=O (stereo unspecified)	2.04 µM (inactive)	5.15 µM (inactive)	2.42 µM (inactive)	2.45	18.2 µM (inactive)	14 µM (inactive)	2.14 µM (inactive)	3.56 µM (inactive)	4.58 µM (inactive)	2.46 µM (inactive)	0.839 µM (active)	15.7 µM (inactive)	1.28 µM (inactive)	19.8 µM (inactive)	18.8 µM (inactive)	11.6 µM (inactive)	31.4 µM (inactive)	3.58 µM (inactive)	18 µM (inactive)
Cc1nn(C(=O)Cc2ccccc2)c2c1C(c1ccc(/C=C/c3ccccc3)cc1)SC(=N)N2 (stereo unspecified)	> 100 µM (inactive)	> 100 µM (inactive)	> 100 µM (inactive)	> 100	> 100 µM (inactive)	> 100 µM (inactive)	> 100 µM (inactive)	> 100 µM (inactive)	> 100 µM (inactive)	> 100 µM (inactive)	> 100 µM (inactive)	–	> 100 µM (inactive)	> 100 µM (inactive)	> 100 µM (inactive)	> 100 µM (inactive)	> 100 µM (inactive)	> 100 µM (inactive)	> 100 µM (inactive)
Cc1ccc(/C=N/NC2=NCCN2)s1	> 100 µM (inactive)	> 100 µM (inactive)	> 100 µM (inactive)	> 100	> 100 µM (inactive)	> 100 µM (inactive)	> 100 µM (inactive)	> 100 µM (inactive)	> 100 µM (inactive)	> 100 µM (inactive)	> 100 µM (inactive)	> 100 µM (inactive)	> 100 µM (inactive)	> 100 µM (inactive)	> 100 µM (inactive)	> 100 µM (inactive)	> 100 µM (inactive)	> 100 µM (inactive)	44.9 µM (inactive)
CN(Cc1cnc2nc(N)nc(N)c2n1)c1ccc(C(=O)NCCCC(=O)O)cc1	12.5 µM (inactive)	6.78 µM (inactive)	> 27.5 µM (inactive)	6.01	58.6 µM (inactive)	8.38 µM (inactive)	4 µM (inactive)	7.55 µM (inactive)	7.57 µM (inactive)	95.9 µM (inactive)	16.2 µM (inactive)	> 100 µM (inactive)	> 40 µM (inactive)	29.9 µM (inactive)	12.3 µM (inactive)	> 100 µM (inactive)	> 63.1 µM (inactive)	98.9 µM (inactive)	17.5 µM (inactive)
CSc1nc(=S)[nH]c2c1c(C)nn2-c1ccccc1	24.3 µM (inactive)	21.9 µM (inactive)	21.2 µM (inactive)	20.3	41.7 µM (inactive)	–	15.7 µM (inactive)	40.5 µM (inactive)	24.8 µM (inactive)	17.1 µM (inactive)	19.1 µM (inactive)	51.1 µM (inactive)	6.73 µM (inactive)	22.1 µM (inactive)	22.9 µM (inactive)	21.1 µM (inactive)	23.3 µM (inactive)	20.5 µM (inactive)	22 µM (inactive)
Nc1ncc(N)c(NCC2(CO)CC(CCc3ccccc3)C2)n1 (stereo unspecified)	8.47 µM (inactive)	12.1 µM (inactive)	7.73 µM (inactive)	13.9	14.7 µM (inactive)	10 µM (inactive)	3.46 µM (inactive)	11.4 µM (inactive)	8.28 µM (inactive)	11 µM (inactive)	0.718 µM (active)	14.7 µM (inactive)	0.482 µM (active)	5.58 µM (inactive)	11.1 µM (inactive)	7.67 µM (inactive)	11.1 µM (inactive)	8.85 µM (inactive)	1.19 µM (inactive)
Cc1ccc2oc(=O)c(C(=O)Nc3nc(C45CC6CC(CC(C6)C4)C5)cs3)cc2c1	> 100 µM (inactive)	> 100 µM (inactive)	> 100 µM (inactive)	> 100	> 100 µM (inactive)	> 100 µM (inactive)	> 100 µM (inactive)	–	> 100 µM (inactive)	> 100 µM (inactive)	> 100 µM (inactive)	> 100 µM (inactive)	> 100 µM (inactive)	> 100 µM (inactive)	> 100 µM (inactive)	> 100 µM (inactive)	> 100 µM (inactive)	> 100 µM (inactive)	> 100 µM (inactive)
CCCCCN1C(=O)C(Cc2ccccc2)N=C(c2ccc(O)cc2)c2cc(Cl)ccc21 (stereo unspecified)	13.6 µM (inactive)	13 µM (inactive)	13.8 µM (inactive)	7.67	23.7 µM (inactive)	10.1 µM (inactive)	6.56 µM (inactive)	11.2 µM (inactive)	> 21.2 µM (inactive)	7.57 µM (inactive)	2.55 µM (inactive)	22.3 µM (inactive)	2.9 µM (inactive)	8.73 µM (inactive)	6.93 µM (inactive)	> 20.7 µM (inactive)	14.5 µM (inactive)	7.66 µM (inactive)	10.4 µM (inactive)
CC(Nc1ccc(Cl)c(Cl)c1)c1ccncc1 (stereo unspecified)	29 µM (inactive)	19.1 µM (inactive)	31 µM (inactive)	40.3	20.9 µM (inactive)	14.9 µM (inactive)	18.4 µM (inactive)	29 µM (inactive)	24.6 µM (inactive)	34.3 µM (inactive)	12.5 µM (inactive)	> 10 µM (inactive)	5.75 µM (inactive)	44 µM (inactive)	23.9 µM (inactive)	50.7 µM (inactive)	22.5 µM (inactive)	26.2 µM (inactive)	11.6 µM (inactive)
CN(C)CCNC(=O)c1ccc2nc3c(nc2c1)C(=O)c1ccccc1-3	31.8 µM (inactive)	47.1 µM (inactive)	> 100 µM (inactive)	31.4	29 µM (inactive)	81.8 µM (inactive)	29.9 µM (inactive)	> 100 µM (inactive)	18.2 µM (inactive)	25.2 µM (inactive)	30.9 µM (inactive)	> 100 µM (inactive)	26.1 µM (inactive)	33.5 µM (inactive)	65.6 µM (inactive)	68.5 µM (inactive)	77.3 µM (inactive)	76.6 µM (inactive)	40.6 µM (inactive)
O=[N+]([O-])/C(Cl)=C/C(=C1/Nc2ccccc2O1)[N+](=O)[O-]	31.8 µM (inactive)	18.1 µM (inactive)	21.4 µM (inactive)	16.6	33.7 µM (inactive)	19.2 µM (inactive)	8.13 µM (inactive)	19.8 µM (inactive)	18.5 µM (inactive)	14.3 µM (inactive)	13.5 µM (inactive)	–	28.5 µM (inactive)	16.3 µM (inactive)	26.7 µM (inactive)	36.1 µM (inactive)	17.4 µM (inactive)	5.79 µM (inactive)	15.7 µM (inactive)
O=S(=O)(O)C(Cc1nc2ccccc2[nH]1)S(=O)(=O)OCCC1S(=O)(=O)OCCOS1(=O)=O (stereo unspecified)	> 100 µM (inactive)	> 100 µM (inactive)	> 100 µM (inactive)	> 100	> 100 µM (inactive)	> 100 µM (inactive)	> 100 µM (inactive)	> 100 µM (inactive)	> 100 µM (inactive)	> 100 µM (inactive)	> 100 µM (inactive)	> 100 µM (inactive)	> 100 µM (inactive)	> 100 µM (inactive)	> 100 µM (inactive)	> 100 µM (inactive)	> 100 µM (inactive)	> 100 µM (inactive)	> 100 µM (inactive)
Clc1ccc(OCc2nnc(CCCCCCCCc3nnc(COc4ccc(Cl)cc4Cl)n3Nc3ccccc3)n2Nc2ccccc2)c(Cl)c1	15.2 µM (inactive)	2.44 µM (inactive)	8.73 µM (inactive)	10.9	3.02 µM (inactive)	10.7 µM (inactive)	19 µM (inactive)	11.3 µM (inactive)	9.93 µM (inactive)	19.5 µM (inactive)	8.75 µM (inactive)	9.23 µM (inactive)	2.34 µM (inactive)	14.2 µM (inactive)	1.38 µM (inactive)	18.4 µM (inactive)	17.7 µM (inactive)	10.8 µM (inactive)	11.8 µM (inactive)
Cc1nnc2sc(NN)nn12	> 100 µM (inactive)	> 100 µM (inactive)	> 100 µM (inactive)	> 100	> 100 µM (inactive)	> 100 µM (inactive)	> 100 µM (inactive)	> 100 µM (inactive)	43.5 µM (inactive)	> 100 µM (inactive)	> 100 µM (inactive)	> 100 µM (inactive)	> 100 µM (inactive)	> 100 µM (inactive)	> 100 µM (inactive)	> 100 µM (inactive)	> 100 µM (inactive)	> 100 µM (inactive)	> 100 µM (inactive)
